This passage reports EC50 results from patent publication US12662469B2 (SIRONAX LTD, priority 2018, dated 2026).

The test system of the test is Cell Necrosis. The test is described as follows: Cell necrosis assay / cell viability assay (necrosis inhibitor activity). The format is cell-based. Conditions: necrosis inhibitor activity, read-out: EC50.
Where [1] appears, read: EC data for 14-191 extrapolated.

Like-named read-outs stand apart in the source and are kept apart here.

What is called EC50 is the concentration giving half of the maximal effect.

On to `NC(=O)CCNc1ncc(F)c(OC2CN(C(=O)N3N=CC[C@H]3c3cc(F)cc(F)c3)C2)n1` [Compound 270, (S)-3-((4-((1-(5-(3,5-difluorophenyl)-4,5-dihydro-1H-pyrazole-1-carbonyl)azetidin-3-yl)oxy)-5-fluoropyrimidin-2-yl)amino)propanamide], for which the EC50 (compounds outside 14-191) lay within 0.001 to 1 µM.
Consider `O=C(N1CC(=Cc2ccc(Cl)cc2Cl)C1)N1N=CC[C@H]1c1cc(F)cc(F)c1` [Compound 314, (S)-(3-(2,4-dichlorobenzylidene)azetidin-1-yl)(5-(3,5-difluorophenyl)-4,5-dihydro-1H-pyrazol-1-yl)methanone], for which the EC50 (compounds outside 14-191) is 0.001 to 1 µM.
Same read-out and setting: next, `CC(=O)Nc1nccc(O[C@@H]2CCN(C(=O)N3N=CC[C@H]3c3cc(F)cc(F)c3)C2)n1` [Compound 368, N-(4-(((R)-1-((S)-5-(3,5-difluorophenyl)-4,5-dihydro-H-pyrazole-1-carbonyl)pyrrolidin-3-yl)oxy)pyrimidin-2-yl)acetamide]: 0.001 to 1 µM; `O=C(N1CC(Oc2ccc(O)nc2)C1)N1N=CCC1c1cc(F)cc(F)c1` (centres unmarked) [Compound 217, (5-(3,5-difluorophenyl)-4,5-dihydro-1H-pyrazol-1-yl)(3-((6-hydroxypyridin-3-yl)oxy)115zetidine-1-yl)methanone]: 0.001 to 1 µM.
As to `NC(=O)c1c(F)cc(OC2CN(C(=O)N3N=CCC3c3cc(F)cc(F)c3)C2)cc1Cl` (centres unmarked) [Compound 157], the EC50 under setting [1] was 0.001 to 1 µM.
For `O=C(N1CC2(CCC2)C1)N1N=CCC1c1ccccc1` (centres unmarked) [Compound 3, (5-phenyl-4,5-dihydro-1H-pyrazol-1-yl)(2-azaspiro[3.3]heptan-2-yl)methanone], the EC50 (compounds outside 14-191) was 0.001 to 1 µM.
As to `O=C1COc2ccc(OC3CN(C(=O)N4N=CC[C@H]4c4ccccc4)C3)cc2N1` [Compound 199, (S)-6-((1-(5-phenyl-4,5-dihydro-1H-pyrazole-1-carbonyl)azetidin-3-yl)oxy)-2H-benzo[b][1,4]oxazin-3(4H)-one], the EC50 (compounds outside 14-191) was in the range of 0.001 to 1 µM.
Regarding `O=C(N1CC(=Cc2ccc(=O)[nH]c2)C1)N1N=CCC1c1cc(F)cc(F)c1` (centres unmarked) [Compound 187], under setting [1], the EC50 was 0.001 to 1 µM.
Still for that read-out and setting: the figure for `O=C(N1CC(=Cc2ccc(F)cc2)C1)N1N=CCC1c1ccccc1` (centres unmarked) [Compound 46, (3-(4-fluorobenzylidene)azetidin-1-yl)(5-phenyl-4,5-dihydro-1H-pyrazol-1-yl)methanone] is 0.001 to 1 µM; for `C[C@H]1CN(c2ncc(F)cn2)CCN1C(=O)N1N=CC[C@@H]1c1cc(F)cc(F)c1` [Compound 118B, ((R)-5-(3,5-difluorophenyl)-4,5-dihydro-1H-pyrazol-1-yl)((S)-4-(5-fluoropyrimidin-2-yl)-2-methylpiperazin-1-yl)methanone] it is 0.001 to 1 µM.
Take `O=C(N1CC[C@@H](Oc2ncc(F)cn2)C1)N1N=CCC1c1ccccc1` (stereo partly drawn) [Compound 34, ((R)-3-((5-fluoropyrimidin-2-yl)oxy)pyrrolidin-1-yl)(5-phenyl-4,5-dihydro-1H-pyrazol-1-yl)methanone]: the EC50 under setting [1] is 1 to 10 µM.
`O=C(N[C@H]1CC[C@H](Oc2ccccc2)C1)N1N=CCC1c1ccccc1` (stereo partly drawn) [Compound 25, N-((1S,3S)-3-phenoxycyclopentyl)-5-phenyl-4,5-dihydro-1H-pyrazole-1-carboxamide]: the EC50 under setting [1] is 1 to 10 µM.
Take `N#Cc1ccnc(O[C@@H]2CCN(C(=O)N3N=CC[C@H]3c3cc(F)cc(F)c3)C2)c1` [Compound 336, 2-(((R)-1-((S)-5-(3,5-difluorophenyl)-4,5-dihydro-1H-pyrazole-1-carbonyl)pyrrolidin-3-yl)oxy)isonicotinonitrile]: the EC50 (compounds outside 14-191) lay in the range of 0.001 to 1 µM.
For `O=C(N1CC(Oc2ccc(OCc3ccccc3)cc2)C1)N1N=CC[C@H]1c1cc(F)cc(F)c1` [Compound 214, (S)-(3-(4-(benzyloxy)phenoxy)zetidine-1-yl)(5-(3,5-difluorophenyl)-4,5-dihydro-1H-pyrazol-1-yl)methanone], the EC50 (compounds outside 14-191) was 0.001 to 1 µM.
Same read-out and setting: the figure for `N#Cc1ccnc(N2CCN(C(=O)N3N=CC[C@H]3c3cc(F)cc(F)c3)CC2)c1` [Compound 232, (S)-2-(4-(5-(3,5-difluorophenyl)-4,5-dihydro-1H-pyrazole-1-carbonyl)piperazin-1-yl)isonicotinonitrile] is 0.001 to 1 µM.
On to `O=C(N1CCN(c2cnccn2)CC1)N1N=CCC1c1ccccc1` (centres unmarked) [Compound 86, (5-phenyl-4,5-dihydro-1H-pyrazol-1-yl)(4-(pyrazin-2-yl)piperazin-1-yl)methanone], for which, under setting [1], the EC50 is 0.001 to 1 µM.
On to `O=C(N1CC(=Cc2ccc3[nH]cnc3c2)C1)N1N=CC[C@H]1c1cc(F)cc(F)c1` [Compound 284], for which the EC50 (compounds outside 14-191) was in the range of 0.001 to 1 µM.
`O=C(N1CC(Oc2ccc(=O)[nH]c2)C1)N1N=CCC1c1cc(F)cc(F)c1` (centres unmarked) [Compound 186]: the EC50 under setting [1] is 0.001 to 1 µM.
As for `O=C(N1CC(=Cc2ccc3cn[nH]c3c2)C1)N1N=CC[C@H]1c1cc(F)cc(F)c1` [Compound 310, (S)-(3-((1H-indazol-6-yl)methylene)azetidin-1-yl)(5-(3,5-difluorophenyl)-4,5-dihydro-1H-pyrazol-1-yl)methanone], the EC50 (compounds outside 14-191) fell in the range of 0.001 to 1 µM.
On to `N#Cc1ccc(OC2CN(C(=O)N3N=CCC3c3cc(F)cc(F)c3)C2)c(F)c1` (centres unmarked) [Compound 136, 4-((1-(5-(3,5-difluorophenyl)-4,5-dihydro-1H-pyrazole-1-carbonyl)azetidin-3-yl)oxy)-3-fluorobenzonitrile], for which the EC50 under setting [1] is 0.001 to 1 µM.
For `O=C(N1CCN(c2ncc(Cl)cn2)CC1)N1N=CCC1c1ccccc1` (centres unmarked) [Compound 88, (4-(5-chloropyrimidin-2-yl)piperazin-1-yl)(5-phenyl-4,5-dihydro-1H-pyrazol-1-yl)methanone], the EC50 under setting [1] was 0.001 to 1 µM.
Same read-out and setting: the figure for `O=C(N1CC(Cc2ccc(F)cc2F)C1)N1OCC[C@H]1c1ccccc1` [Compound 82, (S)-(3-(2,4-difluorobenzyl)azetidin-1-yl)(3-phenylisoxazolidin-2-yl)methanone] is 0.001 to 1 µM; for `O=C(N1CC(Cc2ccccc2)C1)N1N=CCC1c1ccccc1` (centres unmarked) [Compound 16, (3-benzylazetidin-1-yl)(5-phenyl-4,5-dihydro-1H-pyrazol-1-yl)methanone] it is 0.001 to 1 µM.
Regarding `NC(=O)c1ccc(OC2CN(C(=O)N3N=CCC3c3cc(F)cc(F)c3)C2)cc1Cl` (centres unmarked) [Compound 227, 2-chloro-4-((1-(5-(3,5-difluorophenyl)-4,5-dihydro-1H-pyrazole-1-carbonyl)azetidin-3-yl)oxy)benzamide], where the note is “compounds outside 14-191”, the EC50 lay within 0.001 to 1 µM.
On the same count and under the same terms, next, `O=C(N1CC(Oc2nc(NCCO)ccc2F)C1)N1N=CC[C@H]1c1cc(F)cc(F)c1` [Compound 252, (S)(5-(3,5-difluorophenyl)-4,5-dihydro-1H-pyrazol-1-yl)(3-((3-fluoro-6-((2-hydroxyethyl)amino)pyridin-2-yl)oxy)azetidin-1-yl)methanone]: 0.001 to 1 µM; `N#Cc1ccc(F)c(C=C2CN(C(=O)N3N=CC[C@H]3c3cc(F)cc(F)c3)C2)c1` [Compound 319, (S)-3-((1-(5-(3,5-difluorophenyl)-4,5-dihydro-1H-pyrazole-1-carbonyl)azetidin-3-ylidene)methyl)-4-fluorobenzonitrile]: 0.001 to 1 µM; `COc1nc(O[C@@H]2CCN(C(=O)N3N=CC[C@H]3c3cc(F)cc(F)c3)C2)ncc1F` [Compound 363, ((S)-5-(3,5-difluorophenyl)-4,5-dihydro-1H-pyrazol-1-yl)((R)-3-((5-fluoro-4-methoxypyrimidin-2-yl)oxy)pyrrolidin-1-yl)methanone]: 0.001 to 1 µM.
Regarding `O=C(N1CC(Cc2ccc(Cl)cc2F)C1)N1N=CCC1c1ccccc1` (centres unmarked) [Compound 51, (3-(4-chlor-2-fluorobenzyl)azetidin-1-yl)(5-phenyl-4,5-dihydro-1H-pyrazol-1-yl)methanone], under setting [1], the EC50 was 0.001 to 1 µM.
In the case of `O=C(N1CCN(c2ncc3cn[nH]c3n2)CC1)N1N=CC[C@H]1c1cc(F)cc(F)c1` [Compound 260, (S)-(4-(1H-pyrazolo[3,4-d]pyrimidin-6-yl)piperazin-1-yl)(5-(3,5-difluorophenyl)-4,5-dihydro-1H-pyrazol-1-yl)methanone], the EC50 (compounds outside 14-191) was 0.001 to 1 µM.
Still for that read-out and setting: the figure for `NC(=O)c1nc(OC2CN(C(=O)N3N=CC[C@H]3c3cc(F)cc(F)c3)C2)sc1Cl` [Compound 274, (S)-5-chloro-2-((1-(5-(3,5-difluorophenyl)-4,5-dihydro-1H-pyrazole-1-carbonyl)azetidin-3-yl)oxy)thiazole-4-carboxamide] is 0.001 to 1 µM.
Still for that read-out and setting: the figure for `O=C1COc2ccc(C=C3CN(C(=O)N4N=CC[C@H]4c4cc(F)cc(F)c4)C3)cc2N1` [Compound 278, 6-((1-(5-(3,5-difluorophenyl)-4,5-dihydro-1H-pyrazole-1-carbonyl)azetidin-3-ylidene)methyl)-2H-benzo[b][1,4]oxazin-3(4H)-one] is 0.001 to 1 µM.
For the compound `O=C(N1CC(=Cc2ccc(F)cc2Cl)C1)N1N=CCC1c1cc(F)cc(F)c1` (centres unmarked) [Compound 139, (3-(2-chloro-4-fluorobenzylidene)azetidin-1-yl)(5-(3,5-difluorophenyl)-4,5-dihydro-1H-pyrazol-1-yl)methanone], under setting [1], the EC50 is 0.001 to 1 µM.
The same measure, in the same setting: next, `NC(=O)c1cc(OC2CN(C(=O)N3N=CCC3c3cc(F)cc(F)c3)C2)ccc1F` (centres unmarked) [Compound 159]: 0.001 to 1 µM.
Take `CC1CCCC(NC(=O)N2N=CCC2c2ccccc2)C1` (centres unmarked) [Compound 11, N-(3-methylcyclohexyl)-5-phenyl-4,5-dihydro-1H-pyrazole-1-carboxamide]: the EC50 (compounds outside 14-191) is 0.001 to 1 µM.
On the same count and under the same terms, the figure for `O=C(N1CC(=Cc2ccc(Cl)nc2F)C1)N1N=CC[C@H]1c1cncc(F)c1` [Compound 294, (S)-(3-((6-chloro-2-fluoropyridin-3-yl)methylene)azetidin-1-yl)(5-(5-fluoropyridin-3-yl)-4,5-dihydro-1H-pyrazol-1-yl)methanone] is 0.001 to 1 µM.
For the compound `O=C(N1CC[C@@H](Oc2cccc(Cl)c2)C1)N1N=CCC1c1ccccc1` (stereo partly drawn) [Compound 35, ((R)-3-(3-chlorophenoxy)pyrrolidin-1-yl)(5-phenyl-4,5-dihydro-1H-pyrazol-1-yl)methanone], the EC50 runs as follows: under setting [1], 1 to 10 µM; (compounds outside 14-191) 0.001 to 1 µM.
As for `N#Cc1cccc(N2CCN(C(=O)N3N=CC[C@H]3c3cc(F)cc(F)c3)CC2)n1` [Compound 233, (S)-6-(4-(5-(3,5-difluorophenyl)-4,5-dihydro-1H-pyrazol-1-carbonyl)piperazin-1-yl)picolinonitrile], the 50% effective concentration (EC50) (compounds outside 14-191) lay in the range of 0.001 to 1 µM.
